# According to the supplement of paper PMC10307832:
# Legend:
# Assay in all cases: relative viability (nuclei count vs DMSO), 5 days (fraction); higher = more cells survive
# GSK-J4 + Vorinostat = compound: CCOC(=O)CCNc1cc(N2CCc3ccccc3CC2)nc(-c2ccccn2)n1 [GSK-J4] + O=C(CCCCCCC(=O)Nc1ccccc1)NO [Vorinostat] (partner 1 µM)
# Method in brief: (§1)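 Lung cancer cell lines in 1536-well plates got either a single drug or a fixed anchor-drug dose together with five library-drug doses (not always all listed) in √10 steps, by pin tool, on the day after seeding. Nuclei were counted after 5 days, and relative viability is the treated-to-vehicle ratio of nuclei counts. Values are medians of duplicate plates.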
# AZ3146 + Navitoclax = compound: CN1CCC(CC1)OC2=CC(=C(C=C2)NC3=NC=C4C(=N3)N(C(=O)N4C)C5CCCC5)OC [AZ3146] + CC1(C)CCC(c2ccc(Cl)cc2)=C(CN2CCN(c3ccc(C(=O)NS(=O)(=O)c4ccc(N[C@H](CCN5CCOCC5)CSc5ccccc5)c(S(=O)(=O)C(F)(F)F)c4)cc3)CC2)C1 [Navitoclax] (partner 0.5 µM)
# Method in brief: as §1
# AZ3146 + Linsitinib = compound: CN1CCC(CC1)OC2=CC(=C(C=C2)NC3=NC=C4C(=N3)N(C(=O)N4C)C5CCCC5)OC [AZ3146] + C[C@]1(O)C[C@@H](c2nc(-c3ccc4ccc(-c5ccccc5)nc4c3)c3c(N)nccn32)C1 [Linsitinib] (partner 1 µM)
# Method in brief: as §1
# GSK-J4 + OSI-027 = compound: CCOC(=O)CCNc1cc(N2CCc3ccccc3CC2)nc(-c2ccccn2)n1 [GSK-J4] + COc1cccc2cc(-c3nc([C@H]4CC[C@H](C(=O)O)CC4)n4ncnc(N)c34)[nH]c12 [OSI-027] (partner 0.5 µM)
# Method in brief: as §1
Cell Line,relative viability (GSK-J4 + Vorinostat; first compound 0.5 µM),relative viability (GSK-J4 + Vorinostat; first compound 1.581 µM),relative viability (GSK-J4 + Vorinostat; first compound 5 µM),relative viability (GSK-J4 + Vorinostat; first compound 15.81 µM),relative viability (GSK-J4 + Vorinostat; first compound 50 µM),relative viability (AZ3146 + Navitoclax; first compound 0.253 µM),relative viability (AZ3146 + Navitoclax; first compound 0.8 µM),relative viability (AZ3146 + Navitoclax; first compound 2.53 µM),relative viability (AZ3146 + Navitoclax; first compound 8 µM),relative viability (AZ3146 + Linsitinib; first compound 0.253 µM),relative viability (AZ3146 + Linsitinib; first compound 0.8 µM),relative viability (AZ3146 + Linsitinib; first compound 2.53 µM),relative viability (AZ3146 + Linsitinib; first compound 8 µM),relative viability (GSK-J4 + OSI-027; first compound 0.5 µM),relative viability (GSK-J4 + OSI-027; first compound 1.581 µM),relative viability (GSK-J4 + OSI-027; first compound 5 µM),relative viability (GSK-J4 + OSI-027; first compound 15.81 µM),relative viability (GSK-J4 + OSI-027; first compound 50 µM),relative viability (AZ3146 + Navitoclax; first compound 0.08 µM),relative viability (AZ3146 + Linsitinib; first compound 0.08 µM)
HCC-78,0.462,0.435,0.601,0.363,0.587,0.795,0.718,0.899,0.736,0.476,0.416,0.532,0.522,0.351,0.355,0.727,0.368,0.409,–,–
HCC-366,0.284,0.287,–,0.285,0.34,0.958,1.06,1.16,1.14,0.598,0.593,0.637,0.855,1.01,0.889,–,0.524,0.785,1.01,0.674
HCC-827,0.873,0.731,0.782,0.774,0.787,1.02,0.997,1.02,0.998,0.889,0.946,1.02,1.01,0.751,0.635,0.792,0.576,0.787,0.964,0.907
HOP-62,0.48,0.355,0.585,0.507,0.35,1.05,0.938,1.13,0.913,0.978,1.06,1.06,1.05,0.69,0.692,0.722,0.858,0.497,1.08,1.05
IA-LM,0.901,–,1.34,0.711,0.294,0.785,0.699,0.881,0.156,0.441,0.652,0.803,0.626,–,–,–,–,–,0.713,0.729
LC-2-ad,0.787,0.529,0.325,0.704,0.528,0.385,0.649,0.519,0.685,0.886,0.775,0.845,0.863,0.828,0.759,0.659,0.623,0.528,0.425,0.782
LCLC-97TM1,0.684,0.442,0.681,0.507,0.578,–,0.541,0.361,0.544,–,0.221,0.164,0.173,0.443,0.357,0.574,0.342,0.269,–,–
LCLC-103H,0.77,0.671,0.624,0.675,0.546,–,–,–,–,0.978,1.16,1.13,1.1,0.438,0.325,0.379,0.432,0.326,–,1.06
LK-2,0.193,0.248,0.243,0.126,0.579,0.889,0.994,0.911,0.929,0.645,0.562,0.519,0.729,0.268,0.193,0.204,0.152,0.19,0.686,0.672
NCI-H358,0.662,–,0.671,0.602,0.455,–,–,–,–,0.744,0.65,0.75,0.461,0.765,0.68,0.795,0.504,0.617,–,0.868
NCI-H522,0.931,0.725,–,0.651,0.862,–,–,–,–,–,–,–,–,0.78,0.637,0.541,0.585,0.543,–,–
NCI-H650,0.358,0.342,–,0.319,0.266,–,–,–,–,0.805,0.8,1.26,0.779,0.508,0.447,0.356,0.427,0.294,–,0.539
NCI-H661,0.833,0.687,0.821,0.728,0.608,–,–,–,–,0.6,0.603,0.584,0.616,0.694,0.645,0.559,0.542,0.435,–,0.61
NCI-H1299,–,–,–,–,–,1.02,1.06,1,1.01,0.981,0.964,0.99,1.03,–,–,–,–,–,1.02,0.941
NCI-H1563,–,–,–,–,–,–,–,–,–,1.36,1.15,1.24,1.35,0.796,0.766,0.659,0.659,0.748,–,1.09
NCI-H1623,–,–,–,–,–,–,–,–,–,–,–,–,–,0.438,0.456,0.48,0.406,0.435,–,–
NCI-H1648,0.527,–,0.868,–,0.415,–,–,–,–,–,–,–,–,0.239,–,0.308,0.262,0.23,–,–
NCI-H1650,0.567,0.501,0.663,0.48,0.286,1.34,1.26,1.38,1.19,–,–,–,–,0.732,0.365,0.673,0.606,0.553,1.21,–
NCI-H1703,–,–,–,–,–,0.91,0.993,0.708,0.283,1.15,0.637,0.872,0.924,–,–,–,–,–,1.06,0.824
NCI-H1792,–,–,–,–,–,0.786,0.582,0.64,0.654,0.551,0.523,0.6,0.65,0.671,–,0.778,0.485,0.681,0.492,0.436
NCI-H2170,0.813,0.677,0.803,0.638,0.761,0.528,0.632,0.576,0.645,–,–,–,–,0.692,0.696,0.718,0.702,0.524,0.705,–
NCI-H2342,0.81,0.842,0.887,1.09,1.02,–,–,–,–,–,–,–,–,0.669,0.626,0.662,0.615,0.699,–,–
SW 900,0.607,0.414,0.79,0.408,0.483,–,–,–,–,–,–,–,–,0.543,0.602,0.504,0.52,0.331,–,–
